# Publication PMC7156367, “Cell surface processing of the P1 adhesin of Mycoplasma pneumoniae identifies novel domains that bind host molecules” (Scientific Reports, 2020)
# “Also recorded” adds a separate entry of the source. Where a SMILES comes first, the peptide text is derived from it.
# Experiments:
# plasminogen = target: T1, plasminogen (Homo sapiens, UniProt P00747); assay: Microscale thermophoresis, binding to plasminogen
# T1 construct: purchased Merck Millipore (Code 528175) or Sigma (Glu-plasminogen, Code P7999); host or cells: human plasma
# Description: (§1) Binding affinities to fluorescent labelled host proteins was measured by microscale thermophoresis as described in[72]. Microscale thermophoresis was set to 30 s and samples were scanned with 40%, 60% and 80% MST Power. Dissociation constants were determined from generated dissociation curves with set hot/cold or thermophoresis settings. As a control, a scrambled version of the C-terminal P1 peptide ([…]) was synthesised by Chempeptide Limited (China) without any tags and binding affinities was measured.
# Glu-plasminogen = assay: Microtitre plate binding assay (ELISA), plasminogen; set-up: species or system human; details: 15 µg/ml of C-terminal P1 fragments bound to wells, absorbance 450 nm (620 nm reference), eight replicates, P1-15 with N-terminal biotin tag
# Description: (§2) Human proteins used for ELISA include: plasma fibrinogen (Code: F3879), plasma fibronectin (Code: 11051407001), Glu-plasminogen (Code: P7999), vitronectin (Code: SRP3186), laminin (Code: L6274), and lactoferrin (Code: L1294) which were all supplied by Sigma.
# (§3) Binding affinity measured by ELISA was performed as described previously. Recombinant protein RP15 was produced as described[55] and both C-terminal peptides were synthesised by Chempeptide Limited (China). P1-30 (^1597[…]^1627) without any tags, but P1-15 (^1613PGAPKPPVQPPKKPA^1627) was sequenced with an N-terminal biotin tag.
# (§4) 15 µg/ml of C-terminal P1 fragments were bound to wells and incubated with different host proteins. Wells were then incubated with different antiserum raised against the different host proteins at the following dilutions (all from Sigma): anti-fibrinogen 1:3000, anti-fibronectin 1:1000, anti-plasminogen: 1:2500, anti-vitronectin 1:5000, anti-laminin 1:750, and anti-lactoferrin 1:5,000. These incubations were followed by incubations with anti-rabbit IgG (Dako) or anti-goat IgG (both 1:2,000). Detection was measured by adding Tetramethylbenzidine (Sigma) followed by 1 M HCl, and absorbance was measured at 450 nm (620 nm as reference).
# laminin = assay: Microtitre plate binding assay (ELISA), laminin; set-up: species or system human; details: 15 µg/ml of C-terminal P1 fragments bound to wells, absorbance 450 nm (620 nm reference), eight replicates, P1-15 with N-terminal biotin tag
# Description: as §2, §3, §4
# cytokeratin 7 = assay: Affinity chromatography of A549 lysate on P1-15, cytokeratin 7; format: binding, human; details: biotinylated P1-15 on avidin agarose vs uncoupled avidin agarose control, native A549 cell lysate
# Description: (§5) The C-terminal sequence of P1 (P1-15) was synthesised with an N-terminal biotin tag by Chempeptide Limited (China). Affinity chromatography was performed similar to the section above. In brief, 1 mg of the peptide was added to Avidin Agarose beads for 16 h at 4 °C. The beads were washed four times (5 ml per wash) with PBS before being incubated with native A549 cell lysates (harvested in 1% w/v C7BzO in PBS) for 16 h at 4 °C. Non-binding proteins were washed from the column with four washes (5 ml per wash) of PBS and protein complexes with an affinity to the peptide were eluted from the column with 7 M urea, 2 M thiourea, 40 mM Tris-HCl, and 1% (w/v) C7BzO (4 times of 2 ml). Eluents were concentrated with a Macrosep® 3 kDa cutoff centrifugal device (Pall), precipitated with acetone, and separated by 1D-SDS PAGE. The whole lane was divided into sections, in-gel digested with trypsin, and analysed by LC-MS/MS as described above.
# panel of host proteins = assay: Microtitre binding assays, panel of host proteins; set-up: species or system human; details: 15 µg/ml of C-terminal P1 fragments bound to wells
# Description: as §2, §3, §4
# cytokeratin 18 = assay: Affinity chromatography of A549 lysate on P1-15, cytokeratin 18; format: binding, human; details: biotinylated P1-15 on avidin agarose vs uncoupled avidin agarose control, native A549 cell lysate
# Description: as §5
# lactoferrin = assay: Microtitre plate binding assay (ELISA), lactoferrin; set-up: species or system human; details: 15 µg/ml of C-terminal P1 fragments bound to wells, absorbance 450 nm (620 nm reference), eight replicates, P1-15 with N-terminal biotin tag
# Description: as §2, §3, §4
# plasma fibrinogen = assay: Microtitre plate binding assay (ELISA), fibrinogen; set-up: species or system human; details: 15 µg/ml of C-terminal P1 fragments bound to wells, absorbance 450 nm (620 nm reference), eight replicates, P1-15 with N-terminal biotin tag
# Description: as §2, §3, §4
# [1] = test system: glyceraldehyde-3-phosphate dehydrogenase; assay: Affinity chromatography of A549 lysate on P1-15, glyceraldehyde-3-phosphate dehydrogenase; format: binding, human; details: slice 3; biotinylated P1-15 on avidin agarose vs uncoupled control; native A549 cell lysate
# Description: as §5
# vitronectin = assay: Microtitre plate binding assay (ELISA), vitronectin; set-up: species or system human; details: 15 µg/ml of C-terminal P1 fragments bound to wells, absorbance 450 nm (620 nm reference), eight replicates, P1-15 with N-terminal biotin tag
# Description: as §2, §3, §4
# cytokeratin 8 = assay: Affinity chromatography of A549 lysate on P1-15, cytokeratin 8; format: binding, human; details: biotinylated P1-15 on avidin agarose vs uncoupled avidin agarose control, native A549 cell lysate
# Description: as §5
# plasma fibronectin = assay: Microtitre plate binding assay (ELISA), fibronectin; set-up: species or system human; details: 15 µg/ml of C-terminal P1 fragments bound to wells, absorbance 450 nm (620 nm reference), eight replicates, P1-15 with N-terminal biotin tag
# Description: as §2, §3, §4
# vimentin = assay: Affinity chromatography of A549 lysate on P1-15, vimentin; format: binding, human; details: biotinylated P1-15 on avidin agarose vs uncoupled avidin agarose control, native A549 cell lysate
# Description: as §5
# fetuin = target: T2, fetuin (Bos taurus, UniProt P12763); assay: Microscale thermophoresis, binding to fetuin
# T2 construct: purchased Sigma F3004
# T2 sequence (P12763 19-359): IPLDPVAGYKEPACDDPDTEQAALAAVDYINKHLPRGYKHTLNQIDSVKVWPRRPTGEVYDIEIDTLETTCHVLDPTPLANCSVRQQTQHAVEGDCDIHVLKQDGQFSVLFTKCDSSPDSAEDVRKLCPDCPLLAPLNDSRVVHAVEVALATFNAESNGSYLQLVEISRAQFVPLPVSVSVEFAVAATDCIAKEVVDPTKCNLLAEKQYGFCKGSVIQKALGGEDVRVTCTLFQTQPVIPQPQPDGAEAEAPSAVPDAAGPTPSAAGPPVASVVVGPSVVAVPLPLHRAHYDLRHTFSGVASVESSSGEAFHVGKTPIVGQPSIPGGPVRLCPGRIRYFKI
# Description: as §1
# [2] = set-up: method as in PMID 28894125; details: ref [12]; cited from earlier work
# [3] = listed as 1613PGAPKPPVQPPKKPA^1627
compound,measurement,setting,value
CC(C)[C@H](NC(=O)[C@@H]1CCCN1C(=O)[C@@H]1CCCN1C(=O)[C@H](CCCCN)NC(=O)[C@@H]1CCCN1C(=O)[C@H](C)NC(=O)CNC(=O)[C@@H]1CCCN1C(=O)[C@H](CCCCN)NC(=O)[C@@H]1CCCN1C(=O)[C@@H]1CCCN1C(=O)[C@@H](NC(=O)[C@@H]1CCCN1C(=O)[C@@H]1CCCN1C(=O)[C@H](CCCNC(=N)N)NC(=O)[C@@H]1CCCN1C(=O)[C@H](C)NC(=O)CNC(=O)[C@@H]1CCCN1C(=O)[C@H](CCCCN)NC(=O)[C@H](C)NC(=O)[C@H](C)NC(=O)[C@H](CO)NC(=O)[C@@H](N)[C@@H](C)O)C(C)C)C(=O)N[C@@H](CCC(N)=O)C(=O)N1CCC[C@H]1C(=O)N1CCC[C@H]1C(=O)N[C@@H](CCCCN)C(=O)N[C@@H](CCCCN)C(=O)N1CCC[C@H]1C(=O)N[C@@H](C)C(=O)O [P1-30] (H-TSAAKPGAPRPPVPPKPGAPKPPVQPPKKPA-OH),Kd,plasminogen,554 ± 2.1 nM
"PGAPKPPVQPPKKPA [P1-15, C-terminal 15 amino acids of P1, synthesised chemically, N-terminal biotin tag]",binding to plasminogen,Glu-plasminogen,only bound plasminogen in a dose dependent manner; also recorded: bound plasminogen in a dose-responsive manner
same,binding to laminin,laminin,failed to bind laminin
same,"selective recovery / binding, cytokeratin 7",cytokeratin 7,selectively recovered
same,"selective recovery / binding, cytokeratin 7",cytokeratin 7; [3],selectively bound
same,binding to panel of host molecules,panel of host proteins,bind a range of host molecules in a dose dependent manner
same,"selective recovery / binding, cytokeratin 18",cytokeratin 18,selectively recovered
same,"selective recovery / binding, cytokeratin 18",cytokeratin 18; [3],selectively bound
same,binding to lactoferrin,lactoferrin,"failed to bind laminin, lactoferrin"
same,binding to fibrinogen,plasma fibrinogen,"failed to bind laminin, lactoferrin, fibronectin, and fibrinogen"
same,recovery of glyceraldehyde-3-phosphate dehydrogenase,[1],also identified in the eluents from the control
same,binding to vitronectin,vitronectin,also bound to vitronectin
same,"selective recovery / binding, cytokeratin 8",cytokeratin 8,selectively recovered
same,"selective recovery / binding, cytokeratin 8",cytokeratin 8; [3],selectively bound
same,binding to fibronectin,plasma fibronectin,"failed to bind laminin, lactoferrin, fibronectin"
same,"selective recovery / binding, vimentin",vimentin,selectively recovered
same,"selective recovery / binding, vimentin",vimentin; [3],selectively bound
"PKPPRAAPPKAPTPVPPGPASPVKKPKQAPG [scrambled version of P1-30, scrambled version of the C-terminal P1 peptide ([…])]","binding affinity in words, fetuin",fetuin,No binding affinity could be detected
same,"KD, fetuin","fetuin; fluorescent labelled host protein, 30 s, 40%, 60% and 80% MST Power",could not be assigned a KD value
same,"binding affinity in words, plasminogen",plasminogen; microscale thermophoresis,No binding affinity could be detected
same,"KD, plasminogen","plasminogen; microscale thermophoresis, fluorescent labelled host protein, 30 s, 40%, 60% and 80% MST Power",could not be assigned a KD value
elongation factor Tu [Ef-Tu],affinity to heparin,[2],strong affinity to heparin
